Assay results as given in ChEMBL document CHEMBL3044990, “Synthesis and Insecticidal Activity of 5-Dimethylamino-1, 3dithianes” (1991).
≈ marks a conversion by molar mass, not a printed value.

Columns and labels:
Format in all cases: functional
[1] = test system: Tetranychus urticae; test: Insecticidal activity against Tetranychus urticae (two-spotted spider mite) in kidney bean plant leaf assessed as mortality at 500 ppm after 2 days; details: 48 h
[2] = test system: Henosepilachna vigintioctopunctata; test: Insecticidal activity against third-instar larvae of Henosepilachna vigintioctopunctata assessed as mortality after 2 days; details: 48 h
[3] = test system: Chilo suppressalis; test: Insecticidal activity against 5th instar larva of Chilo suppressalis assessed as mortality at 50 ug/g after 48 hr
[4] = test system: Laodelphax striatellus; test: Insecticidal activity against 3rd instar larva of Laodelphax striatella (small brown planthopper) assessed as mortality at 50 ppm after 6 days; details: 144 h

`CN(C)C1CSC(C#N)(c2ccccc2)SC1` (stereo unspecified) showed a mortality at 500 ppm [1] of 10%, an LC50 [2] of 200 µg/mL (≈ 756 µM) and a mortality [3] of 100%. For the same molecule, the mortality at 50 ppm [4] was 15%.
For `CN(C)C1CSC(C#N)(c2ccc(F)cc2)SC1` (stereo unspecified), the mortality at 500 ppm [1] was 100%, the LC50 [2] was 130 µg/mL (≈ 460 µM) and the mortality [3] was 100%. It also gave a mortality at 50 ppm [4] of 15%.
`CN(C)C1CSC(C#N)(c2ccc(Cl)cc2)SC1` (stereo unspecified) was tested, and the mortality at 500 ppm [1] was 100%, the LC50 [2] was 120 µg/mL (≈ 402 µM) and the mortality [3] was 100%. The mortality at 50 ppm [4] was 75%.
`CN(C)C1CSC(C#N)(c2ccc(Br)cc2)SC1` (stereo unspecified) showed a mortality at 500 ppm [1] of 100%, an LC50 [2] of 25 µg/mL (≈ 72.8 µM) and a mortality [3] of 100%. It also gave a mortality at 50 ppm [4] of 100%.
For `CN(C)C1CSC(C#N)(c2ccc([N+](=O)[O-])cc2)SC1` (stereo unspecified), the mortality at 500 ppm [1] was 60%, the LC50 [2] was 18 µg/mL (≈ 58.2 µM) and the mortality [3] was 100%. It also gave a mortality at 50 ppm [4] of 95%.
`CN(C)C1CSC(C#N)(c2ccc(N)cc2)SC1` (stereo unspecified) was tested, and the mortality at 500 ppm [1] was 100%, the LC50 [2] was 25 µg/mL (≈ 89.5 µM) and the mortality [3] was 100%. The mortality at 50 ppm [4] was 45%.
`COc1ccc(C2(C#N)SCC(N(C)C)CS2)cc1` (stereo unspecified) showed a mortality at 500 ppm [1] of 100%, an LC50 [2] of 35 µg/mL (≈ 119 µM) and a mortality [3] of 100%. For the same molecule, the mortality at 50 ppm [4] was 20%.
`Cc1ccc(C2(C#N)SCC(N(C)C)CS2)cc1` (stereo unspecified) showed a mortality at 500 ppm [1] of 100%, an LC50 [2] of 25 µg/mL (≈ 89.8 µM) and a mortality [3] of 100%. It also gave a mortality at 50 ppm [4] of 85%.
With `CN(C)C1CSC(C#N)(c2cccc(F)c2)SC1` (stereo unspecified) the mortality at 500 ppm [1] was 100%, the LC50 [2] was 18 µg/mL (≈ 63.7 µM) and the mortality [3] was 100%. The mortality at 50 ppm [4] was 85%.
Molecule `CN(C)C1CSC(C#N)(c2cccc(Cl)c2)SC1` (stereo unspecified) has a mortality at 500 ppm [1] of 80%, an LC50 [2] of 10 µg/mL (≈ 33.5 µM) and a mortality [3] of 100%. For the same molecule, the mortality at 50 ppm [4] was 85%.
With `CN(C)C1CSC(C#N)(c2cccc(Br)c2)SC1` (stereo unspecified) the mortality at 500 ppm [1] was 100%, the LC50 [2] was 15 µg/mL (≈ 43.7 µM) and the mortality [3] was 100%. It also gave a mortality at 50 ppm [4] of 70%.
In the case of `CN(C)C1CSC(C#N)(c2cccc([N+](=O)[O-])c2)SC1` (stereo unspecified), the mortality at 500 ppm [1] is reported as 100%, the LC50 [2] is reported as 15 µg/mL (≈ 48.5 µM) and the mortality [3] is reported as 100%. For the same molecule, the mortality at 50 ppm [4] was 70%.
For `CN(C)C1CSC(C#N)(c2cccc(C(F)(F)F)c2)SC1` (stereo unspecified), the mortality at 500 ppm [1] was 100%, the LC50 [2] was 18 µg/mL (≈ 54.1 µM) and the mortality [3] was 100%. For the same molecule, the mortality at 50 ppm [4] was 95%.
In the case of `Cc1cccc(C2(C#N)SCC(N(C)C)CS2)c1` (stereo unspecified), the mortality at 500 ppm [1] is reported as 80%, the LC50 [2] is reported as 120 µg/mL (≈ 431 µM) and the mortality [3] is reported as 100%. The mortality at 50 ppm [4] was 30%.
Work on `CN(C)C1CSC(C#N)(c2ccccc2F)SC1` (stereo unspecified) yielded a mortality at 500 ppm [1] of 100%, an LC50 [2] of 15 µg/mL (≈ 53.1 µM) and a mortality [3] of 100%. It also gave a mortality at 50 ppm [4] of 55%.
With `CN(C)C1CSC(C#N)(c2ccccc2Cl)SC1` (stereo unspecified) the mortality at 500 ppm [1] was 100%, the LC50 [2] was 15 µg/mL (≈ 50.2 µM) and the mortality [3] was 100%. The mortality at 50 ppm [4] was 95%.
`CN(C)C1CSC(C#N)(c2ccccc2Br)SC1` (stereo unspecified) was tested, and the mortality at 500 ppm [1] was 100%, the LC50 [2] was 10 µg/mL (≈ 29.1 µM) and the mortality [3] was 100%. It also gave a mortality at 50 ppm [4] of 85%.
With `CN(C)C1CSC(C#N)(c2ccccc2[N+](=O)[O-])SC1` (stereo unspecified) the mortality at 500 ppm [1] was 70%, the LC50 [2] was 19 µg/mL (≈ 61.4 µM) and the mortality [3] was 100%. It also gave a mortality at 50 ppm [4] of 85%.
Work on `COc1ccccc1C1(C#N)SCC(N(C)C)CS1` (stereo unspecified) yielded a mortality at 500 ppm [1] of 100%, an LC50 [2] of 30 µg/mL (≈ 102 µM) and a mortality [3] of 100%. It also gave a mortality at 50 ppm [4] of 20%.
In the case of `Cc1ccccc1C1(C#N)SCC(N(C)C)CS1` (stereo unspecified), the mortality at 500 ppm [1] is reported as 60%, the LC50 [2] is reported as 100 µg/mL (≈ 359 µM) and the mortality [3] is reported as 100%. The mortality at 50 ppm [4] was 20%.
With `CN(C)C1CSC(C#N)(c2ccc(Cl)c(Cl)c2)SC1` (stereo unspecified) the mortality at 500 ppm [1] was 50%, the LC50 [2] was 12 µg/mL (≈ 36 µM) and the mortality [3] was 100%. It also gave a mortality at 50 ppm [4] of 40%.
`CN(C)C1CSC(C#N)(c2c(Cl)cccc2Cl)SC1` (stereo unspecified) was tested, and the mortality at 500 ppm [1] was 80%, the LC50 [2] was 15 µg/mL (≈ 45 µM) and the mortality [3] was 100%. For the same molecule, the mortality at 50 ppm [4] was 99%.
Molecule `CN(C)C1CSC(C#N)(c2cc(Cl)cc(Cl)c2)SC1` (stereo unspecified) has a mortality at 500 ppm [1] of 100%, an LC50 [2] of 133 µg/mL (≈ 399 µM) and a mortality [3] of 100%. The mortality at 50 ppm [4] was 55%.
`CN(C)C1CSC(C#N)(c2cc(F)ccc2F)SC1` (stereo unspecified) was tested, and the mortality at 500 ppm [1] was 100%, the LC50 [2] was 30 µg/mL (≈ 99.9 µM) and the mortality [3] was 100%. The mortality at 50 ppm [4] was 30%.
